Test results from ChEMBL document CHEMBL3351528, “Targeting dopamine D3 and serotonin 5-HT1A and 5-HT2A receptors for developing effective antipsychotics: synthesis, biological characterization, and behavioral studies” (J Med Chem, 2014).

Columns and labels:
D(3) dopamine receptor = D(3) dopamine receptor (Homo sapiens, UniProt P35462)
Description: Binding affinity to dopamine D3 receptor (unknown origin)

[1] = target: T1, 5-hydroxytryptamine receptor 1A (Homo sapiens, UniProt P08908)
T1 sequence (P08908 whole entry): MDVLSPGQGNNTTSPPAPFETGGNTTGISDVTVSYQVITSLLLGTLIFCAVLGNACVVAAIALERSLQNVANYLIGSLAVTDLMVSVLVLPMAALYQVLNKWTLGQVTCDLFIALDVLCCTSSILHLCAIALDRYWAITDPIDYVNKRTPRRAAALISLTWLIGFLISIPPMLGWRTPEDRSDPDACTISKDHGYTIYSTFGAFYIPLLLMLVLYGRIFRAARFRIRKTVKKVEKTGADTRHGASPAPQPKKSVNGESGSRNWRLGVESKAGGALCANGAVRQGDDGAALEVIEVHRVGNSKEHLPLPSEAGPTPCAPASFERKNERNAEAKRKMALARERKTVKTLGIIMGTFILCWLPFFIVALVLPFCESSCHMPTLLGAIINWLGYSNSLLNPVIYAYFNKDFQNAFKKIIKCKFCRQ
Description: Binding affinity to 5HT1A receptor (unknown origin)

D(2) dopamine receptor = D(2) dopamine receptor (Homo sapiens, UniProt P14416)
Chain of D(2) dopamine receptor (P14416 whole entry): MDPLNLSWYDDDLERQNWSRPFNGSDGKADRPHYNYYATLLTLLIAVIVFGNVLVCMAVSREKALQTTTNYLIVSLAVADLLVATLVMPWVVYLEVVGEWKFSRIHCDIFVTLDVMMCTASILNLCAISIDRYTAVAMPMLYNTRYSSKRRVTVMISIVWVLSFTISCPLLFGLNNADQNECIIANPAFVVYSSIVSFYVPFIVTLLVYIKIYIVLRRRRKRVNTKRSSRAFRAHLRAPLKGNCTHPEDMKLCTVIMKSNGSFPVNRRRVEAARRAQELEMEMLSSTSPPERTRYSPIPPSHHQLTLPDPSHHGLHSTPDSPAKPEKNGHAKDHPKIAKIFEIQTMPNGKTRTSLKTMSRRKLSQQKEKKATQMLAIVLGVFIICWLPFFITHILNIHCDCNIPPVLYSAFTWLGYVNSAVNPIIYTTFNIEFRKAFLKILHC
Description: Binding affinity to dopamine D2 receptor (unknown origin)

[2] = target: T2, 5-hydroxytryptamine receptor 2C (Homo sapiens, UniProt P28335)
T2 sequence (P28335 whole entry): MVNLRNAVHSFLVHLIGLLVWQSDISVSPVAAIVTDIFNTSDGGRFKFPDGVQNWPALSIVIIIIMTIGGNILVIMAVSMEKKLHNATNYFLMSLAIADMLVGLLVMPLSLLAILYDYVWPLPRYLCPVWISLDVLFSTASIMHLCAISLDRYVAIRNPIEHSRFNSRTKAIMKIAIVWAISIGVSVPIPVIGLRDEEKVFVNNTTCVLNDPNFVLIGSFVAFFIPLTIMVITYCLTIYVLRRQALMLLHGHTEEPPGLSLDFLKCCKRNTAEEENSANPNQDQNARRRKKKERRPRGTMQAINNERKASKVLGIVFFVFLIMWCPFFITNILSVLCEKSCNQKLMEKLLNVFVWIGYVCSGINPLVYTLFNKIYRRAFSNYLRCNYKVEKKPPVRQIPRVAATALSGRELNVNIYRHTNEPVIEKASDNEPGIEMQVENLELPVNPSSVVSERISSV
Description: Binding affinity to 5HT2C receptor (unknown origin)

[3] = target: 5-hydroxytryptamine receptor 2A (Homo sapiens, UniProt P28223)
Chain of 5-hydroxytryptamine receptor 2A (P28223 whole entry): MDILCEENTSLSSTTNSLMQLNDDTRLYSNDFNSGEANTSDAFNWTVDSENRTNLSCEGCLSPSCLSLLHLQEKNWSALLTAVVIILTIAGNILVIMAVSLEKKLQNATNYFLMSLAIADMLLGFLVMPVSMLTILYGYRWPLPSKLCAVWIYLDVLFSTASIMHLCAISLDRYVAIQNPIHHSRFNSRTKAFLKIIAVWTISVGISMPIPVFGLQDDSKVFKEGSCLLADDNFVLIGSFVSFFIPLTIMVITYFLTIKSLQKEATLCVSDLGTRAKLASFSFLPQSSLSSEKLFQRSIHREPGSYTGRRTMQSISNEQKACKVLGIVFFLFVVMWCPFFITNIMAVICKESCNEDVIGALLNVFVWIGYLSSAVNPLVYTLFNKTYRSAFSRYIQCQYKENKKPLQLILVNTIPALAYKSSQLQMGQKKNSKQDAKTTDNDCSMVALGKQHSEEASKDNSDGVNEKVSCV
Description: Binding affinity to 5HT2A receptor (unknown origin)

Mus musculus [4] = species on record: Mus musculus; assay: animal or person; details: NMRI, sc; for minimal effective dose: read-out: MED
Description: Antipsychotic-like activity in sc dosed NMRI mouse assessed as reduction in methamphetamine-induced locomotor activity dosed 15 to 30 mins before administration of methamphetamine measured for 60 mins

Mus musculus [5] = species on record: Mus musculus; details: in vivo, sc, 0.5 h
Description: Effect on spontaneous exploratory locomotor activity in sc dosed NMRI mouse measured for 30 mins with activity counts each 5 mins

Mus musculus [6] = assay: Effect on spontaneous exploratory locomotor activity in orally dosed NMRI mouse measured for 30 mins with activity counts each 5 mins; format: ADME, organism-based; details: in vivo, po, 0.5 h
Mus musculus [7] = assay: Antipsychotic-like activity in orally dosed NMRI mouse assessed as reduction in MK801-induced locomotor activity dosed 15 to 30 mins before administration of MK801 measured for 60 mins; format: functional; details: po, read-out: MED
Mus musculus [8] = species on record: Mus musculus; assay: animal or person; details: NMRI, sc, read-out: MED
Description: Antipsychotic-like activity in sc dosed NMRI mouse assessed as reduction in PCP-induced locomotor activity dosed 15 to 30 mins before administration of methamphetamine measured for 60 mins

Mus musculus [9] = assay: Antipsychotic-like activity in sc dosed NMRI mouse assessed as reduction in MK801-induced locomotor activity dosed 15 to 30 mins before administration of MK801 measured for 60 mins; format: functional; details: read-out: MED
Mus musculus [10] = assay: Toxicity in NMRI mouse assessed as induction of tremors at 30 mg/kg, sc dosed 30 mins before test; format: organism-based; design: dose 30 mg/kg, route subcutaneous; details: in vivo, 0.5 h

Chain of D(3) dopamine receptor (P35462 whole entry): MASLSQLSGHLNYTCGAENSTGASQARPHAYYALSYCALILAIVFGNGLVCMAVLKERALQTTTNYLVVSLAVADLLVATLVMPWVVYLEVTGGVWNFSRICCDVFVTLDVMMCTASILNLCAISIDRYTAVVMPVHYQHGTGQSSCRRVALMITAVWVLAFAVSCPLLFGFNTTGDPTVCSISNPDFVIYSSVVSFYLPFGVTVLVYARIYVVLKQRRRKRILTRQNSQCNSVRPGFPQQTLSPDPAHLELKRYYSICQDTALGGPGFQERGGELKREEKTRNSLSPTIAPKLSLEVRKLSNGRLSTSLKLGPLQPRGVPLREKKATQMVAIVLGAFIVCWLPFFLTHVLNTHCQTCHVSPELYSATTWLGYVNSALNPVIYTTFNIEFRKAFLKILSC

SMILES | Ki (D(3) dopamine receptor) [nM] | Ki [1] [nM] | Ki (D(2) dopamine receptor) [nM] | Ki [2] [nM] | Ki [3] [nM] | ED50 (Mus musculus [4]) [mg/kg] | ED50 (Mus musculus [5]) [mg/kg] | MED (Mus musculus [6]) [mg/kg] | minimal effective dose (Mus musculus [7]) [mg/kg] | minimal effective dose (Mus musculus [8]) [mg/kg] | minimal effective dose (Mus musculus [4]) [mg/kg] | MED (Mus musculus [5]) [mg/kg] | minimal effective dose (Mus musculus [9]) [mg/kg] | Activity (Mus musculus [10])
O=C(NCCCCN1CCN(c2ccccc2)CC1)c1cccnc1 | 62 | 85 | > 1000 | > 1000 | 216 | – | – | – | – | – | – | – | – | –
O=C(NCCCCN1CCN(c2ccccc2)CC1)[C@@H]1CCc2ccccc2N1 | 45 | 85 | > 1000 | > 1000 | 22 | – | – | – | – | – | – | – | – | –
O=C(NCCCCN1CCN(c2ccc(O)cc2)CC1)c1cc2ccccc2cn1 | 24 | > 1000 | > 1000 | 400 | 17 | – | – | – | – | – | – | – | – | –
O=C(NCCCCN1CCN(c2cccc3ccccc23)CC1)c1ccccc1 | 0.9 | 0.7 | 58 | 6 | 3 | – | – | – | – | – | – | – | – | –
O=C(NCCCCN1CCN(c2cccc(C(F)(F)F)c2)CC1)c1cc2ccccc2[nH]1 | 0.2 | 1.9 | 53 | 22 | 4 | – | – | – | – | – | – | – | – | –
O=C(CCCN1CCC(O)(c2ccc(Cl)cc2)CC1)c1ccc(F)cc1 [HALOPERIDOL] | – | – | – | – | – | 0.09 | 0.08 | – | – | – | – | – | – | –
O=C(NCCCCN1CCN(c2ccc(F)cc2)CC1)c1cc2ccccc2cn1 | 16 | 73 | > 1000 | 300 | 8 | – | – | 60 | 60 | – | – | – | – | –
COc1cccc(N2CCN(CCCCNC(=O)c3cccc(C)n3)CC2)c1 | 27 | 44 | > 1000 | > 1000 | 238 | – | – | – | – | – | – | – | – | –
COc1cccc(N2CCN(CCCCNC(=O)c3ccccn3)CC2)n1 | 200 | 8 | > 1000 | 43 | 140 | – | – | – | – | 3 | 3 | > 3 | – | –
Cc1cccc(N2CCN(CCCCNC(=O)c3ccccc3)CC2)n1 | 73 | 3 | > 1000 | > 1000 | 83 | – | – | – | – | > 3 | 1 | > 3 | – | –
Cc1cccc(N2CCN(CCCCNC(=O)c3ccccn3)CC2)n1 | > 1000 | 3 | > 1000 | > 1000 | 240 | – | – | – | – | – | – | – | – | –
O=C(NCCCCN1CCN(c2cccc(F)c2)CC1)c1cc2ccccc2cn1 | 3 | 11 | 160 | 230 | 11 | – | – | – | – | – | – | – | – | –
O=C(NCCCCN1CCN(c2ccccc2)CC1)c1ccc2ccccc2n1 | 61 | 94 | > 1000 | 475 | 98 | – | – | – | – | – | – | – | – | –
O=C(NCCCCN1CCN(c2ccccc2)CC1)c1ccccn1 | 144 | 52 | > 1000 | > 1000 | 100 | – | – | – | – | > 3 | 1 | 3 | – | –
COc1cccc(N2CCN(CCCCNC(=O)c3ccc4ccccc4n3)CC2)c1 | 31 | 26 | > 1000 | 155 | 70 | – | – | – | – | – | – | – | – | –
O=C(NCCCCN1CCN(c2cnc3ccccc3c2)CC1)c1cc2ccccc2cn1 | 14 | > 1000 | > 1000 | 479 | 1000 | – | – | – | – | – | – | – | – | –
Cc1cccc(N2CCN(CCCCNC(=O)c3cc4ccccc4o3)CC2)c1C | 0.4 | 4 | 85 | 17 | 3.6 | – | – | – | – | – | – | – | 30 | Toxic
COc1cccc(N2CCN(CCCCNC(=O)c3cc4ccccc4o3)CC2)c1 | 8.8 | 17 | > 1000 | 173 | 40 | – | – | – | – | – | – | – | – | –

SMILES | Ki (D(3) dopamine receptor) [nM] | Ki [1] [nM] | Ki (D(2) dopamine receptor) [nM] | Ki [2] [nM] | Ki [3] [nM] | ED50 (Mus musculus [4]) [mg/kg] | ED50 (Mus musculus [5]) [mg/kg] | MED (Mus musculus [6]) [mg/kg] | minimal effective dose (Mus musculus [7]) [mg/kg] | minimal effective dose (Mus musculus [8]) [mg/kg] | minimal effective dose (Mus musculus [4]) [mg/kg] | MED (Mus musculus [5]) [mg/kg] | minimal effective dose (Mus musculus [9]) [mg/kg] | Activity (Mus musculus [10])
Cc1cccc(N2CCN(CCCCNC(=O)[C@@H]3CCc4ccccc4N3)CC2)c1 | 159 | 43 | > 1000 | 73.4 | 5.1 | – | – | – | – | – | – | – | – | –
Cc1cccc(N2CCN(CCCCNC(=O)c3cc4ccccc4cn3)CC2)n1 | 46 | 2 | > 1000 | 57 | 28 | – | – | – | – | – | – | – | – | –
O=C(NCCCCN1CCN(c2ccccn2)CC1)c1ccc2ccccc2n1 | 186 | 24 | > 1000 | > 1000 | 69 | – | – | – | – | – | – | – | – | –
O=C(NCCCCN1CCN(c2ccccc2)CC1)[C@H]1CCc2ccccc2N1 | 73 | 9.9 | > 1000 | > 1000 | 50 | – | – | – | – | – | – | – | – | –
O=C(NCCCCN1CCN(c2cnc3ccccc3c2)CC1)c1ccccc1 | 40 | > 1000 | 1 | > 1000 | > 1000 | – | – | – | – | – | – | – | – | –
Cc1cccc(N2CCN(CCCCNC(=O)c3ccc4ccccc4n3)CC2)c1 | 53 | 18 | > 1000 | 74 | 17 | – | – | – | – | > 10 | ≤ 1 | 10 | 10 | Toxic
O=C(NCCCCN1CCN(c2ccccc2)CC1)c1cc2ccccc2cn1 | 12 | 26 | > 1000 | > 1000 | 40 | – | – | – | – | 3 | ≤ 1 | 10 | 3 | –
COc1cccc(N2CCN(CCCCNC(=O)c3ccccc3)CC2)n1 | 55 | 6 | > 1000 | > 1000 | 110 | – | – | – | – | 10 | 0.3 | 10 | 3 | –
O=C(NCCCCN1CCN(c2ccccc2F)CC1)c1cc2ccccc2o1 | 0.3 | 15 | 76 | 79 | 18 | – | – | – | – | – | – | – | – | –
Cc1cccc(N2CCN(CCCCNC(=O)c3cc4ccccc4o3)CC2)c1 | – | 11.9 | – | 206 | 15.3 | – | – | – | – | – | – | – | – | –
O=C(NCCCCN1CCN(Cc2ccccc2)CC1)c1cc2ccccc2o1 | 560 | > 1000 | > 1000 | > 1000 | > 1000 | – | – | – | – | – | – | – | – | –
Cc1cccc(N2CCN(CCCCNC(=O)[C@H]3CCc4ccccc4N3)CC2)c1 | 122 | 117 | 3410 | 450 | 77 | – | – | – | – | – | – | – | – | –
Cc1cccc(N2CCN(CCCCNC(=O)c3cc4ccccc4o3)CC2)n1 | 24 | 2 | > 1000 | 61 | 27 | – | – | – | – | – | – | – | – | –
COc1cccc(N2CCN(CCCCNC(=O)c3cc4ccccc4n3C)CC2)c1 | 1.7 | 10 | 219 | 311 | 311 | – | – | – | – | – | – | – | – | –
O=C(NCCCCN1CCN(c2ccccn2)CC1)c1cc2ccccc2cn1 | 41 | 16 | 5600 | 1350 | 822 | – | – | – | – | – | – | – | – | –
COc1cccc(N2CCN(CCCCNC(=O)c3c[nH]c4ccccc34)CC2)c1 | 40 | 59 | > 1000 | 602 | 164 | – | – | – | – | – | – | – | – | –
COc1cccc(N2CCN(CCCCNC(=O)c3ccccn3)CC2)c1 | 214 | 36 | > 1000 | > 1000 | 179 | – | – | – | – | – | – | – | – | –
O=C(NCCCCN1CCN(c2ncccn2)CC1)c1cc2ccccc2cn1 | 204 | 67 | > 1000 | > 1000 | 1230 | – | – | – | – | – | – | – | – | –
